{"source": "PubChem BioAssay AID256", "about": "(DTP/NCI, 2004)", "test_system": "CD2F1 mice, L1210 leukemia ip, survival T/C", "test": "NCI In Vivo Anticancer Drug Screen. Data for tumor model L1210 Leukemia (intraperitoneal) in CD2F1 (CDF1) mice", "conditions": "higher = longer survival", "summary_of_the_method": "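Antitumor effect is scored in animals hosting a serially transplanted tumor. Values compare compound-dosed animals against vehicle-only controls as a simple quotient.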", "key": {"[1]": {"conditions": "endpoint: mean survival time, dose: 100.0 mg/kg/injection, schedule: Q04DX003 (ip), vehicle: saline with Tween-80"}, "[2]": {"conditions": "endpoint: mean survival time, dose: 200.0 mg/kg/injection, schedule: Q04DX003 (ip), vehicle: saline with Tween-80"}, "[3]": {"conditions": "endpoint: mean survival time, dose: 400.0 mg/kg/injection, schedule: Q04DX003 (ip), vehicle: saline with Tween-80"}}, "note": "Values joined by “and” are separate entries in the source; they are usually repeats but may differ in a detail not shown here. Identical values can stand only once. Toxic doses and inconclusive results are not listed.", "data": [{"smiles": "COc1cc(/C=C/c2ccccn2)cc(OC)c1OC", "values": [{"measurement": "T/C", "setting": "[1]", "value": "101 % of control"}, {"measurement": "T/C", "setting": "[2]", "value": "91 % of control"}]}, {"smiles": "CCCCSC#N", "values": [{"measurement": "T/C", "setting": "endpoint: mean survival time, dose: 7.5 mg/kg/injection, schedule: Q01DX009 (ip), vehicle: saline with Tween-80", "value": "95 % of control"}, {"measurement": "T/C", "setting": "endpoint: mean survival time, dose: 15.0 mg/kg/injection, schedule: Q01DX009 (ip), vehicle: saline with Tween-80", "value": "100 % of control"}, {"measurement": "T/C", "setting": "endpoint: mean survival time, dose: 30.0 mg/kg/injection, schedule: Q01DX009 (ip), vehicle: saline with Tween-80", "value": "91 % of control"}]}, {"smiles": "CCN(CC)CCOc1ccc(NC(=O)c2ccccc2)cc1", "values": [{"measurement": "T/C", "setting": "endpoint: mean survival time, dose: 6.25 mg/kg/injection, schedule: Q04DX003 (ip), vehicle: saline", "value": "101 % of control"}, {"measurement": "T/C", "setting": "endpoint: mean survival time, dose: 12.5 mg/kg/injection, schedule: Q04DX003 (ip), vehicle: saline", "value": "101 % of control"}, {"measurement": "T/C", "setting": "endpoint: mean survival time, dose: 25.0 mg/kg/injection, schedule: Q04DX003 (ip), vehicle: saline", "value": "104 % of control"}]}, {"smiles": "O=C(O)O.[Co]", "values": [{"measurement": "T/C", "setting": "endpoint: mean survival time, dose: 400.0 mg/kg/injection, schedule: Q01DX001 (ip), vehicle: saline", "value": "105 % of control"}]}, {"smiles": "Cc1ccc(C2=C(O)C(=O)C(c3ccc(C)cc3)=C(O)C2=O)cc1", "values": [{"measurement": "T/C", "setting": "endpoint: mean survival time, dose: 75.0 mg/kg/injection, schedule: Q01DX001 (ip), vehicle: other", "value": "105 % of control"}, {"measurement": "T/C", "setting": "endpoint: mean survival time, dose: 150.0 mg/kg/injection, schedule: Q01DX001 (ip), vehicle: other", "value": "102 % of control"}]}, {"smiles": "CCOC(=O)Nc1cc2c(c(N)n1)N=C(CN(C)c1ccc(OC)cc1)CN2", "values": [{"measurement": "T/C", "setting": "endpoint: mean survival time, dose: 0.78 mg/kg/injection, schedule: Q01DX009 (ip), vehicle: Klucel (hydroxypropylcellulose) (HPC)", "value": "118 % of control"}]}, {"smiles": "CCCCCCCCCCCCCCCCCCNC(=O)Nc1ccc(C)c(C)c1", "values": [{"measurement": "T/C", "setting": "endpoint: mean survival time, dose: 100.0 mg/kg/injection, schedule: Q01DX009 (ip), vehicle: saline with Tween-80", "value": "104 % of control"}, {"measurement": "T/C", "setting": "[1]", "value": "91 % of control"}, {"measurement": "T/C", "setting": "endpoint: mean survival time, dose: 200.0 mg/kg/injection, schedule: Q01DX009 (ip), vehicle: saline with Tween-80", "value": "105 % of control"}, {"measurement": "T/C", "setting": "[2]", "value": "89 % of control"}, {"measurement": "T/C", "setting": "endpoint: mean survival time, dose: 400.0 mg/kg/injection, schedule: Q01DX009 (ip), vehicle: saline with Tween-80", "value": "105 % of control"}, {"measurement": "T/C", "setting": "[3]", "value": "98 % of control"}]}, {"smiles": "NC(=S)N/N=C/c1ccc(OC(=O)COc2ccc(Cl)cc2)cn1", "values": [{"measurement": "T/C", "setting": "endpoint: mean survival time, dose: 88.0 mg/kg/injection, schedule: Q01DX009 (ip), vehicle: saline with Tween-80", "value": "173 % of control"}, {"measurement": "T/C", "setting": "endpoint: mean survival time, dose: 100.0 mg/kg/injection, schedule: Q04DX002 (ip), vehicle: saline with Tween-80", "value": "103 % of control and 111 % of control"}, {"measurement": "T/C", "setting": "endpoint: mean survival time, dose: 118.0 mg/kg/injection, schedule: Q01DX001 (ip), vehicle: saline with Tween-80", "value": "109 % of control"}, {"measurement": "T/C", "setting": "endpoint: mean survival time, dose: 118.0 mg/kg/injection, schedule: Q04DX003 (ip), vehicle: saline with Tween-80", "value": "150 % of control"}, {"measurement": "T/C", "setting": "endpoint: mean survival time, dose: 132.0 mg/kg/injection, schedule: Q01DX009 (ip), vehicle: saline with Tween-80", "value": "214 % of control"}, {"measurement": "T/C", "setting": "endpoint: mean survival time, dose: 178.0 mg/kg/injection, schedule: Q01DX001 (ip), vehicle: saline with Tween-80", "value": "118 % of control"}, {"measurement": "T/C", "setting": "endpoint: mean survival time, dose: 178.0 mg/kg/injection, schedule: Q04DX003 (ip), vehicle: saline with Tween-80", "value": "166 % of control"}, {"measurement": "T/C", "setting": "endpoint: mean survival time, dose: 200.0 mg/kg/injection, schedule: Q04DX002 (ip), vehicle: saline with Tween-80", "value": "114 % of control"}, {"measurement": "T/C", "setting": "endpoint: mean survival time, dose: 266.0 mg/kg/injection, schedule: Q01DX001 (ip), vehicle: saline with Tween-80", "value": "123 % of control"}, {"measurement": "T/C", "setting": "endpoint: mean survival time, dose: 266.0 mg/kg/injection, schedule: Q04DX003 (ip), vehicle: saline with Tween-80", "value": "170 % of control"}, {"measurement": "T/C", "setting": "endpoint: mean survival time, dose: 300.0 mg/kg/injection, schedule: Q01DX009 (ip), vehicle: saline with Tween-80", "value": "93 % of control"}, {"measurement": "T/C", "setting": "[3]", "value": "181 % of control"}, {"measurement": "T/C", "setting": "endpoint: mean survival time, dose: 600.0 mg/kg/injection, schedule: Q04DX003 (ip), vehicle: saline with Tween-80", "value": "150 % of control"}, {"measurement": "T/C", "setting": "endpoint: median survival time, dose: 25.0 mg/kg/injection, schedule: Q01DX009 (ip), vehicle: saline with Tween-80", "value": "164 % of control"}, {"measurement": "T/C", "setting": "endpoint: median survival time, dose: 50.0 mg/kg/injection, schedule: Q01DX009 (ip), vehicle: saline with Tween-80", "value": "188 % of control"}, {"measurement": "T/C", "setting": "endpoint: median survival time, dose: 50.0 mg/kg/injection, schedule: Q01DX009 (ip), vehicle: saline", "value": "172 % of control"}, {"measurement": "T/C", "setting": "endpoint: median survival time, dose: 88.0 mg/kg/injection, schedule: Q01DX009 (ip), vehicle: saline with Tween-80", "value": "178 % of control"}, {"measurement": "T/C", "setting": "endpoint: median survival time, dose: 100.0 mg/kg/injection, schedule: Q01DX009 (ip), vehicle: saline with Tween-80", "value": "175 % of control and 180 % of control"}, {"measurement": "T/C", "setting": "endpoint: median survival time, dose: 100.0 mg/kg/injection, schedule: Q01DX009 (ip), vehicle: saline", "value": "209 % of control"}, {"measurement": "T/C", "setting": "endpoint: median survival time, dose: 133.0 mg/kg/injection, schedule: Q01DX009 (ip), vehicle: saline with Tween-80", "value": "178 % of control"}, {"measurement": "T/C", "setting": "endpoint: median survival time, dose: 200.0 mg/kg/injection, schedule: Q01DX009 (ip), vehicle: saline with Tween-80", "value": "182 % of control and 184 % of control and 213 % of control"}, {"measurement": "T/C", "setting": "endpoint: median survival time, dose: 200.0 mg/kg/injection, schedule: Q01DX009 (ip), vehicle: saline", "value": "172 % of control"}, {"measurement": "T/C", "setting": "endpoint: median survival time, dose: 300.0 mg/kg/injection, schedule: Q01DX009 (ip), vehicle: saline with Tween-80", "value": "102 % of control"}, {"measurement": "T/C", "setting": "endpoint: median survival time, dose: 400.0 mg/kg/injection, schedule: Q01DX009 (ip), vehicle: saline with Tween-80", "value": "108 % of control"}, {"measurement": "T/C", "setting": "endpoint: median survival time, dose: 400.0 mg/kg/injection, schedule: Q01DX009 (ip), vehicle: saline", "value": "97 % of control"}]}]}
